Key:
[1] = test system: Human skeletal muscle myoblasts (HSMMs); assay: Myogenin expression by immunofluorescence staining; assay type: cell-based; conditions: SV peptide 20 ng/mL, HS group = 2% horse serum positive control
Description: Human skeletal muscle myoblasts (HSMMs) were purchased from Lonza and used. The medium used for HSMM culture was the supplier's recommended medium (Skeletal Muscle Growth Media-2 supplemented with SingleQuots Kit).
Myogenin is known to be expressed when myoblasts differentiate into myotube cells. In this experiment, myogenin expression was used as an index to examine the effect of the SV peptide on the differentiation of human skeletal muscle myoblasts.
Human skeletal muscle myoblasts were cultured in a medium containing the SV peptide (20 ng/mL, SV group), the random SV (20 ng/mL, random SV group), or PBS (PBS group) for 48 or 72 hours. For a positive control, human skeletal muscle myoblasts were cultured in an F-12/DMEM medium containing 2% horse serum, which is known to facilitate myoblast differentiation into myotube cells (Moira A. Lawson et al.: Cells Tissues Organs 2000; 167: 130-137) (HS group). After 48- or 72-hour culture, the cells were immunostained with an anti-human myogenin antibody by the usual method and observed with a fluorescence microscope.

[2] = test system: muscle injury model rats (incised masseter muscles on both sides); assay: In vivo skeletal muscle forming capability (HE, MyoD, myogenin staining at postoperative week 1), Example 4; parameters: species or system Jcl:SD rats
Protocol: In the same manner as in Example 2, incisions were made in masseter muscles on both sides in Jcl:SD rats (10 weeks old) under anesthesia, and immediately after that, the rats were subjected to administration of 1 mL of the SV peptide (20 ng/mL) or 1 mL of PBS into the incised left masseter muscle without administration into the incised right masseter muscle. The two groups were called “SV group” and “PBS group”. Each rat was euthanized at postoperative week 1, and the masseter muscles on both sides were excised. The masseter muscles were embedded in paraffin and transversally sliced into histological sections by the usual method. The sections were subjected to HE staining, immunostaining with an anti-MyoD antibody and immunostaining with an anti-myogenin antibody. The anti-MyoD antibody used was an anti-mouse MyoD antibody (Abcam), and the anti-myogenin antibody used was an anti-mouse myogenin antibody (Abcam). A biotin-labeled anti-rabbit IgG antibody (DAKO) was used as a secondary antibody.
The area of granulation tissue formed on the cut surfaces was measured on the HE-staining specimens using the image-analysis software ImageJ (NIH, USA). The granulation tissue area ratios in the SV group and the PBS group were separately calculated using the following formula. […]
(§1) Images of the MyoD-immunostained specimens were taken with a digital camera mounted on a microscope, and the number of MyoD-positive nuclei in the muscle tissue area extending 2.5 mm on each side of the muscle incision site was counted. The MyoD-positive ratios in the SV group and the PBS group were separately calculated using the following formula. […]
as §1, with “myogenin-immunostained” for “MyoD-immunostained”, “myogenin-positive” for “MyoD-positive”

[3] = test system: angiogenesis; conditions: Patent Literature 1, Non Patent Literature 1 and 2; compared with VEGF; cited from earlier work
[4] = test system: Human skeletal muscle satellite cells (HskMSCs); assay: Cell migratory capacity (cell-denuded area); assay type: cell-based; conditions: SV peptide 20 ng/mL
Description: Human skeletal muscle satellite cells (HskMSCs) were purchased from ScienCell Research Laboratories and used. The medium used for HskMSC culture was the supplier's recommended medium (Skeletal Muscle Cell Medium containing 5% FBS, Skeletal Muscle Cell Growth Supplement, and penicillin/streptomycin solution).
Human skeletal muscle satellite cells and human skeletal muscle myoblasts were separately cultured on 60-mm (diameter) dishes (Iwaki) to 100% confluency. From each dish, a 2-mm-wide strip of cells were removed, and the medium was replaced with a medium containing the SV peptide (20 ng/mL, SV group), the random SV (20 ng/mL, random SV group), or PBS (PBS group). Thereafter, culture was continued. Images were taken with a digital camera mounted on a phase-contrast microscope every 12 hours. The cell-denuded area was measured using the image-analysis software ImageJ (NIH, USA). The cell migration percentage was determined by calculating the percentage of reduction in the cell-denuded area relative to the value immediately after cell removal.

[5] = test system: muscle injury model rats (incised masseter muscles on both sides); assay: Electrophysiological experiment (masseter EMG), Example 2; assay type: in vivo, Jcl:SD rats
Protocol: Incisions were made in masseter muscles on both sides in Jcl:SD rats (10 weeks old) under anesthesia in the same manner as in Example 1. Immediately after muscle incision, 1 mL each of the SV peptide (20 ng/mL) or 1 mL each of PBS was intramuscularly administered into several sites surrounding the cut surfaces. The incision on each side was made along a straight line connecting the lateral angle of the eye and the mandibular angle, extending in depth from the fascia on the skin side to the lateral periosteum on the mandibular ramus. The cut surfaces were subjected to electrocoagulation with an electric scalpel for the arrest of bleeding (see FIG. 1). […]
In the same manner as in Example 1, bipolar needle electrodes were retained in the masseter muscles on both sides, and myogenic potential signals received through connectors fixed to both sides of the parietal bone were monitored. EMG data were recorded at postoperative weeks 1, 2, 4, 6, and 8.
The integral of bursts in the left (administration side) masseter muscle in the SV group or the PBS group was calculated as a measure of muscle activity and represented in FIG. 9 as a relative value compared to the 1-week postoperative value, which was assumed as 1. […]

SVVYGLR [SV peptide]
percentage of myogenin-positive cells ([1]; 48-hour culture): significantly higher than that in the PBS group or the random SV group, but significantly lower than that in the HS group | percentage of myogenin-positive cells ([1]; 72-hour culture): significantly higher than that in the PBS group or the random SV group, and comparable to that in the HS group | granulation tissue area ratio (administration side / non-administration side) ([2]; HE staining): significant reduction in granulation tissue formation | MyoD-positive ratio (administration side / non-administration side) ([2]; MyoD immunostaining, SV group vs PBS group): significant increase of MyoD-positive cells as compared with the PBS group | myogenin-positive ratio (administration side / non-administration side) ([2]; myogenin immunostaining, SV group vs PBS group): significant increase of myogenin-positive cells as compared with the PBS group | angiogenic activity [3]: high angiogenic activity that is comparable to that of VEGF | cell migratory capacity [4]: did not affect | chewing side preference ([5]; postoperative weeks 1 and 8, SV peptide into left masseter, right incision only): increase in left-side chewing preference over time postoperatively | integral of bursts in the left (administration side) masseter muscle ([5]; weeks 4, 6, and 8, relative to 1-week postoperative value = 1, SV group vs PBS group): significantly greater values than those in the PBS group
